According to patent publication US20230381139A1, “METHODS OF TREATING AND/OR PREVENTING ALZHEIMER’S DISEASE WITH R-CARVEDILOL” (priority 2020, published 2023):

How the values were obtained:
[1] = test system: RyR2-mediated Ca2+ release; experiment: Ex vivo two-photon Ca2+ imaging of caffeine-induced Ca2+ release in CA1 neurons of brain slices from treated 5×FAD+/− mice; design: species or system mouse; conditions: CA1 pyramidal neurons in brain slices of 4-5 months old 5×FAD+/− mice treated for 1 month; caffeine 40 mM; vs DMSO-treated
[2] = test system: hippocampal CA3-CA1 pathway of 5×FAD+/− mice; experiment: Long-term potentiation / fEPSP recording in hippocampal slices from treated 5×FAD+/− mice; type: in vivo, mouse; conditions: vs DMSO
Experimental: Adult genetically engineered mice, 5×FAD^+/− (Oakley et al., 2006), RyR2-E4872Q^+/− (EQ^+/−) (Chen et al., 2014), 5×FAD^+/−/RyR2-E4872Q^+/− (5×FAD^+/−/EQ^+/−), and wildtype (WT) littermates of both sexes were used. R-carvedilol (R-CV) (at doses of 0.8, 1.6 or 3.2 mg/kg/day), racemic carvedilol (3.2 mg/kg/day), and vehicle control (DMSO) were delivered to 5×FAD^+/− mice in drinking water for one month, starting at different ages before (2-3 months old) or after (3-4 months old) the occurrence of AD pathologies (Oakley et al., 2006). To assess the effects of genetically and pharmacologically limiting RyR2 open time on the prevention and rescue of AD deficits in different stages (early, moderate, and late) of AD progression, animals at different ages (from 2-15 months) were used. […] For 2-photon Ca^2+ imaging experiments, 5×FAD, RyR2 WT, and RyR2 mutant mice were cross-bred with the heterozygous Thy1-GCaMP6f transgenic mice (Chen et al., 2012; Chen et al., 2013) (GP5.17, JAX 025393) to express the GCaMP6f Ca^2+ sensing probe (driven by the Thy1 promotor) in hippocampal neurons in each of the genotypes used.
Schaffer collateral fibers were stimulated at the CA3 subfield to record field excitatory postsynaptic potentials (fEPSPs) in the CA1 stratum radiatum of transverse hippocampal slices ([…]) from all genotypes and drug-treated mice at different ages. After recovering at room temperature for 1 h (or 2 h for brain slices from drug-treated mice), hippocampal slices were allowed to recover in the recording chamber for additional 10 min. To evaluate basal synaptic transmission, different stimulation strengths (0 μA to 200 μA in steps of 20 μA) were applied and plotted fEPSP slopes versus the current input to compare the slope of input/output (I/O) curves of fEPSP. In the experiments that followed, stimulus current was adjusted so that fEPSP stabilized at 40-50% of maximum. Baseline was recorded for at least […] until the differences among fEPSP slopes were within 10%. Long-term potentiation (LTP) was induced using a tetanic high-frequency stimulation (HFS; 4 trains of 100 pulses at 100 Hz, with 20-sec intervals). Synaptic responses were recorded for at least 60 min after tetanization and quantified as the slope of the evoked fEPSP as percentage of the baseline.

[3] = test system: subiculum pyramidal neurons of 5×FAD+/− mice; experiment: Nissl staining, neuronal cell loss in 5×FAD+/− mice; type: in vivo, mouse; conditions: 6-7 months old 5×FAD+/− mice, pre-treatment 3.2 mg/kg/day for 1 month; vs DMSO
Experimental: Adult genetically engineered mice, 5×FAD^+/− (Oakley et al., 2006), RyR2-E4872Q^+/− (EQ^+/−) (Chen et al., 2014), 5×FAD^+/−/RyR2-E4872Q^+/− (5×FAD^+/−/EQ^+/−), and wildtype (WT) littermates of both sexes were used. R-carvedilol (R-CV) (at doses of 0.8, 1.6 or 3.2 mg/kg/day), racemic carvedilol (3.2 mg/kg/day), and vehicle control (DMSO) were delivered to 5×FAD^+/− mice in drinking water for one month, starting at different ages before (2-3 months old) or after (3-4 months old) the occurrence of AD pathologies (Oakley et al., 2006). To assess the effects of genetically and pharmacologically limiting RyR2 open time on the prevention and rescue of AD deficits in different stages (early, moderate, and late) of AD progression, animals at different ages (from 2-15 months) were used. As reported (Oakley et al., 2006), there was an age-dependence of AD progression in the 5×FAD^+/− mice. No sex-dependent differences in AD progression in these mice was observed. For 2-photon Ca^2+ imaging experiments, 5×FAD, RyR2 WT, and RyR2 mutant mice were cross-bred with the heterozygous Thy1-GCaMP6f transgenic mice (Chen et al., 2012; Chen et al., 2013) (GP5.17, JAX 025393) to express the GCaMP6f Ca^2+ sensing probe (driven by the Thy1 promotor) in hippocampal neurons in each of the genotypes used. […]

[4] = test system: hippocampal CA1 and subiculum neurons of 3×TG+/− mice; experiment: Nissl staining, neuron density in 3×TG+/− mice; type: in vivo, mouse; conditions: 12-15 months old 3×TG+/− mice, 3.2 mg/kg/day for one month; vs DMSO
Experimental: Genetically engineered mice of 12-15 months old, 3×TG+/− (Oddo et al., 2003), RyR2-E4872Q+/− (EQ+/−)(Chen et al., 2014), 3×TG+/−/RyR2-E48720+/− (3×TG+/−/EQ+/−), and WT littermates of both sexes were used. Sex differences, which may produce biological variables, were not investigated in this study. R-carvedilol (R-CV) (3.2 mg/kg/day) and vehicle control (DMSO) were delivered to 3×TG+/− mice in drinking water for one month. As shown previously, only heterozygous RyR2-E4872Q+/− mutant mice were produced as homozygous E4872Q+/+mutation is embryonic lethal (Chen et al., 2014). Functional RyR2s are tetrameric channels formed by 4 RyR2 monomers. The heterozygous E4872Q+/− mutant mice (harboring one WT allele and one E4872Q mutant allele) will produce a mixture of homo- and hetero-tetrameric channels that contain the WT, E48720 mutant, or both WT/E4872Q mutant monomers. Thus, the RyR2-E4872Q mutation can exert its negative impact not only on the function of the E4872Q homo-tetramers, but also on the function of the WT monomer in the WT/E4872Q hetero-tetrameric channels.
For the Nissl staining, paraffin-embedded brain tissue sections (5 μm) were immersed in xylene (5 min, 2 times), rehydrated in absolute ethanol (5 min, 2 times) followed by 95%, 75% and 50% solutions of ethanol in water (5 min each), then washed in distilled water for 2 times, 5 min each. […]

RyR2 = conditions: cardiac cells; cited from earlier work

## COc1ccccc1OCCNC[C@@H](O)COc1cccc2[nH]c3ccccc3c12 [R-carvedilol, R-(+)-carvedilol]
[1]
  Caffeine-induced Ca2+ release: markedly reduced
[2]; 3.2 mg/kg/day for one month started at 2-3 months of age (before AD symptoms), slices at 3-4 months
  LTP impairment: prevented
[2]; 3.2 mg/kg/day for one month started at 3-4 months of age (after AD symptom), slices at 4-5 months
  LTP impairment: rescued
[2]; 5×FAD+/− hippocampal brain slices, 3-4, 4-5 and 6-7 months old treated mice
  reduced basal synaptic transmission (fEPSP slope vs stimulus intensity): restored
[2]; 6-7 months old 5×FAD+/− mice after 1-month treatment with 3.2 mg/kg/day
  LTP deficit: rescues
[3]
  subiculum neuronal cell loss: protected against
[4]
  density of neurons in the hippocampal CA1 region: no significant difference
  density of neurons in the subiculum area: significantly higher
RyR2
  RyR2 open time: shortened
